Laboratory results reported in patent US11262348B2, “Cell-based assays for detection of antibodies or other factors that neutralize uptake of lysosomal enzymes” (BIOMARIN PHARMACEUTICAL INC., priority 2015, dated 2022).
“Also recorded” adds a separate entry of the source.

Legend:
[1] = test system: Jurkat cells; test: Flow cytometry uptake of labeled GAA with IGF-II tag; format: cell-based, human; conditions: for inhibition of rhGAA-IGF-II uptake (in words): Jurkat cells (Jurkat and HepG2 not distinguished); for inhibition of uptake: rhGAA-IGF-II uptake into Jurkat cells
Method: The assay was also validated for a CI-MPR ligand that is not mannose-6 phosphate. The ability of CI-MPR expressing Jurkat or HepG2 cells were analyzed by flow cytometry for their ability to take up labeled GAA comprising an IGF-II tag, which facilitates binding to the CI-MPR. […] This uptake was inhibited by unlabeled GAA as well as anti-IGFII antibody.

[2] = test system: Jurkat cells; test: Cell-based flow cytometry assay of Alexa488-rhGALNS uptake (screening assay, % SI); parameters: species or system human
Method: Cell uptake of rhGALNS is measured using flow cytometry to determine the amount of fluorophore-conjugated rhGALNS taken up by Jurkat cells. Jurkat cells are a non-adherent human T cell line that express CI-MPR, which binds and targets rhGALNS to the lysosome. rhGALNS neutralizing antibodies (NAb) are detected in samples by a decrease in fluorophore-conjugated rhGALNS uptake (calculated as % inhibition) that exceeds the screening cut point (SCP).
For a 1:1 dilution, 60 μL per well of controls were added in duplicate or in quadruplicate for 2 sets into the appropriate wells. Similarly, for a 1:1 dilution of sample, 60 μL per well of patient screening samples were added into the appropriate wells. For a 1:1 dilution for the confirmation assay, 60 μL per well of patient confirmation samples were added in duplicate into the corresponding wells. The plate was covered, wrapped in foil and allowed to incubate overnight for 14 to 20 hours at 2-8° C.
Assay: Prior to the sample incubation step, the cell plates were removed from the CO2 incubator and observed to ensure the cells were healthy and viable. […] After the incubation was completed, the cells were washed in PBS by centrifuging the plate for 6 min at 310×g in a tabletop centrifuge at 14 to 18° C., repeated two to five times as appropriate. After the last wash, the plate was removed from the centrifuge, the cell pellet resuspended in 100 μL viability stain (red fluorescent reactive dye 1:1000 dilution) and tested for viability. Once viability testing was complete, the cells were centrifuged 6 min at 310×g in a tabletop centrifuge at 14 to 18° C.
Percent Signal Inhibition (% SI) is calculated as [% SI=1—mean median fluorescence intensity (MFI) of sample/mean MFI of control×100]. Confirmatory assay data were analyzed as recovery ratio, defined as mean confirmatory assay MFI of sample/mean screening assay MFI of sample. The titer was calculated as the interpolated dilution factor at which the sample crossed the titer cut point determined by linear regression analysis (Microsoft Excel).

`O=C[C@@H](O)[C@@H](O)[C@H](O)[C@H](O)COP(=O)(O)O` [M6P, mannose-6-phosphate, reference compound] was tested, and the “inhibition of rhGAA-IGF-II uptake (in words)” value [1] was “partial inhibition”, the “inhibition of rhGALNS uptake into Jurkat cells (in words)” value [2] was “dose dependent effect; also recorded: dose dependently abrogated; also recorded: completely blocked” and the “inhibition of rhGALNS uptake” value ([2]; 0.5M M6P) was “approximately 32%”. For the same compound, the “inhibition of rhGALNS uptake” value ([2]; 5M M6P) was “approximately 96%” and the IC50 ([2]; Homo sapiens, Jurkat cells) was 453 µM.
`C=C1[C@@H](C)[C@H]2[C@H](Cc3ccccc3)NC(=O)[C@]23OC(=O)/C=C/[C@H](O)CCC[C@@H](C)C/C=C/[C@H]3[C@@H]1O` [cytochalasin B, reference compound] was tested, and the “MFI signal emitted from Alexa488-rhGALNS-treated cells” value ([2]; 374 μM cytochalasin B, pretreated 1 hour) was 777±4.2.
In the case of `Cc1cc(-c2ccc(/N=N/c3c(S(=O)(=O)O)cc4cc(S(=O)(=O)O)cc(N)c4c3O)c(C)c2)ccc1/N=N/c1c(S(=O)(=O)O)cc2cc(S(=O)(=O)O)cc(N)c2c1O` [trypan blue, reference compound], the “fluorescence of cells treated with Alexa488-labeled anti-CD3” value ([2]; increasing concentrations of trypan blue) is reported as “reduced” and the “impact on Alexa488-rhGALNS MFI values” ([2]; trypan blue up to 0.4%) is reported as “no impact”.
In the case of “IGF-II: CI-MPR ligand tested as a possible neutralizing factor”, the inhibition of uptake ([1]; 0.6M excess IGF-II) is reported as “approximately 58%”, the inhibition of uptake ([1]; 50M excess IGF-II) is reported as “approximately 95%” and the “inhibition of rhGAA-IGF-II uptake (in words)” value [1] is reported as “dose dependent effect”. For the same compound, the “inhibition of rhGALNS uptake into Jurkat cells (in words)” value [2] was “partial inhibition”.
With “unlabeled GAA: unlabeled acid alpha glucosidase used as a competitor of GAA-IGFII uptake” the “inhibition of rhGAA-IGF-II uptake (in words)” value [1] was “inhibited”.
